Results: US8288372B2, “Method for treating headache with loxapine” (Alexza Pharmaceuticals, Inc., priority 2002, dated 2012)
Where two headings read alike, the source gives them in different places. Marks after values point to notes of the source that are not given here.

Tests used:
animal model = details: chronic administration of amoxapine alone; cited from earlier work
[1] = cited from earlier work
Male mice = assay: Mouse writhing test (acetic acid 0.5% i.p.); details: for Effect on the number of writhes induced by acetic acid: five doses i.p.; for Dose from which the number of writhes was significantly decreased: Mann Whitney U test vs vehicle
Experimental: Male mice weighing 23-28 g were used in this test. Mice were injected with acetic acid (0.5% i.p.). This treatment induces a recognizable writhing response in control animals. The number of writhes is counted for 10 minutes beginning 5 minutes after injection of acetic acid. Ten mice were studied per group. The test was performed blind. Loxapine and amoxapine (dispersed in 0.2% hydroxypropylmethylcellulose, then dissolved in saline) were evaluated at five doses, administered i.p. 30 minutes before acetic acid, and compared with a vehicle control (0.2% hydroxypropylmethylcellulose in saline) group. Dosage rates for loxapine were 0.125, 0.25, 0.5, 1 and 2 mg/kg. Dosage rates for amoxapine were 1, 2, 4, 8 and 16 mg/kg. […] The data were analyzed by comparing the treated groups with the vehicle control using Mann Whitney U tests.

[2] = test system: subjects with a history of moderate to severe migraine headache; assay: Phase II clinical trial of loxapine for the treatment of acute migraine attacks; type: in vivo, human
Description: The study methodology is a double-blind, randomized, placebo-controlled dose-ranging trial. Healthy male and female subjects 18 to 65 years of age, inclusive, with a history of moderate to severe migraine headache by self-report (migraine with or without aura) with average frequency of 1-6 attacks per month during the past 3 months are recruited to participate in the study. Those subjects meeting entry criteria are enrolled and randomized to receive one of the following treatments: placebo, loxapine rapid delivery system ˜1.25 mg, loxapine rapid delivery system ˜2.5 mg, loxapine rapid delivery system ˜5 mg, loxapine rapid delivery system ˜10 mg. Higher loxapine doses may also be tested if found safe in a Phase I clinical trial. The loxapine rapid delivery system is a means of delivering loxapine to a migraine patient such that maximum plasma drug concentrations are obtained within 1 hour, 30 minutes, 15 minutes, 10 minutes, 5 minutes, or even 2 minutes or less. The condensation aerosol delivery system described above with respect to a Phase I clinical trial is one such system. Other rapid delivery systems include various durations of intravenous infusions or injections.
Immediately prior to receiving the treatment to which the patient has been randomized, the patient rates their severity of headache and nausea on a 4-point scale (0—absent, 1—mild, 2—moderate, 3—severe) and photophobic and phonophobia on a 2-point scale (Does light make your headache worse? 0—No, 1—Yes; Does noise make your headache worse? O—No, 1—Yes). Alternatively, an 11-point visual-analogue scale (0—none to 10—maximally severe) or other appropriate scale can be used. Subjects are asked to repeat these ratings at timepoints of 15 and 30 minutes following treatment, and also at 1, 2, 4, 8, 12 and 24 hours post treatment. Subjects are further asked for their global assessment of treatment efficacy (1—very poor to 5—very good) at 120 minutes and 24 hours post treatment. Concomitant medications, if any, are also recorded.

[3] = test system: person with migraine headache; assay: Clinical use of loxapine tablet for an acute migraine attack; type: in vivo, human; details: 25 mg tablet by mouth
Experimental: A person in generally good health notes onset of moderate pain localizing to the right side of their head over approximately 10 minutes while at home. Over the next 10 minutes, the pain becomes more severe, characterized by throbbing. The person recognizes this as a migraine headache, and also knows that for their such headaches, when untreated, tend to persist for at least a full day with nausea accompanying the headache pain and with the pain so severe as to render sleeping difficult or impossible. The person turns down the lights in their living room to avoid the pain caused by bright light entering their eyes, and turns off the radio, because noise from the radio was worsening their headache pain. They take a 25 mg loxapine tablet by mouth with a glass of water. Over the next 15 minutes, the headache pain begins to […], and the person's stomach is mildly upset. […] Their stomach no longer bothers them. […] Light and sound are no longer bothersome. They eat a normal meal without stomach upset.

[4] = Toxicokinetic analysis of loxapine plasma concentration after aerosol inhalation; type: in vivo, beagle dogs
Experimental: On the first day of the repeat dose (5 day) portion of the study, plasma samples were collected for toxicokinetic analysis prior to dosing, 2 minutes after the onset of dosing, immediately after dosing, 20 minutes and 1, 3, 9 and 24 hours post dosing. Samples were stored at −80° C. until loxapine plasma concentration analysis. Loxapine plasma concentration can be measured using analytical methods well known in the art, such as LC/MS, LC/MS/MS, and/or GC/MS. […] The rate of rise in loxapine plasma concentration is found to average at least 70 ng/mL/minute at the 2 mg/kg dose level over the first 2 minutes of dosing, and 20 ng/mL/minute at the 2 mg/kg dose level over the first 10 minutes of dosing. The rate of rise in loxapine plasma concentration is found to average at least 7 ng/mL/minute at the 0.2 mg/kg dose level over the first 2 minutes of dosing, and 2 ng/mL/minute at the 0.2 mg/kg dose level over the first 10 minutes of dosing. Therapeutic plasma levels of approximately at least 0.5 ng/mL, 1 ng/mL, 2 ng/mL, 4 ng/mL, 8 ng/mL, or even 15 ng/mL are obtained within 10 minutes, 5 minutes, and even within 2 minutes at both dose levels.

Beagle Dog = details: in vivo
[5] = 1 mg/kg i.p. 30 minutes before acetic acid, first or second experiment
[6] = 2 mg/kg i.p. 30 minutes before acetic acid, first or second experiment

Clc1ccc2c(c1)C(N1CCNCC1)=Nc1ccccc1O2 [Amoxapine, 2-chloro-11(1-piperazinyl)dibenz(b,f) (1,4) oxazepine]
Latency of the tail-flick (animal model): no change
Cmax ([1]; lowest used oral dose 50 mg (Jue et al. 1982)): ~30 ng/mL
Cmax ([1]; oral 100 mg (Calvo et al. 1985)): ~50 ng/mL
Tmax after oral administration ([1]; oral 100 mg): ~1.5 h
Blood levels after repeated dosing ([1]; repeated amoxapine dosing (Calvo et al. 1985)): 30 to 300 ng/mL
Reduction in acetic acid writhing, percentage of control vehicle pretreatment (Male mice; [5]): −23% NS
Reduction in acetic acid writhing, percentage of control vehicle pretreatment (Male mice; [6]): −39% *
Reduction in acetic acid writhing, percentage of control vehicle pretreatment (Male mice; 4 mg/kg i.p. 30 minutes before acetic acid, first or second experiment): −71% ***
Reduction in acetic acid writhing, percentage of control vehicle pretreatment (Male mice; 8 mg/kg i.p. 30 minutes before acetic acid, first or second experiment): −93% ***
Reduction in acetic acid writhing, percentage of control vehicle pretreatment (Male mice; 16 mg/kg i.p. 30 minutes before acetic acid): −100% ***
Effect on the number of writhes induced by acetic acid (Male mice): dose-dependently decreased the number of writhes
Dose from which a clear / marked effect on writhing was observed (Male mice; i.p.): ≥ 4 mg/kg
Dose from which the number of writhes was significantly decreased (Male mice; i.p.): ≥ 2 mg/kg
Dose from which sedation was observed (Male mice; male, mouse, in vivo, ip): ≥ 2 mg/kg

CN1CCN(C2=Nc3ccccc3Oc3ccc(Cl)cc32)CC1 [Loxapine, 2-chloro-11(4-methyl-1-piperazinyl)dibenz(b,f) (1,4) oxazepine]
Therapeutic effect of the drug ([2]; 5 mg and 10 mg, rapid delivery system, within 1 hour): strong therapeutic effect
Severity of headache in treated patients ([2]; 5 mg and 10 mg, at 1 hour, even 30 minutes, sometimes 15 minutes): markedly lower than prior to treatment
Headache relief versus placebo ([2]; 5 mg or 10 mg, at 1 hour, statistically significant at p<0.05 assuming large sample): marked advantage
Persistence of advantage versus placebo ([2]; 5 mg or 10 mg, unless placebo patients get rescue medication): persists at 2 hours, 4 hours, 8 hours, and even 24 hours
Signs of headache after brief nap [3]: without any signs of headache
Return of headache ([3]; no further medication): does not return over the next 72 hours
Headache pain ([3]; over the 1 hour following the first 15 minutes): diminishes slowly
Cmax for loxapine only ([1]; oral dose of 25 mg, a different study): 10 to 12 ng/mL
Tmax after oral administration ([1]; oral, manufacturer studies (Lederle Laboratories)): 2 to 3 h
Average rate of rise in loxapine plasma concentration ([4]; 0.2 mg/kg, first 2 minutes of dosing): at least 7 ng/mL/minute
Average rate of rise in loxapine plasma concentration ([4]; 0.2 mg/kg, first 10 minutes of dosing): ≥ 2 ng/mL/min
Average rate of rise in loxapine plasma concentration ([4]; 2 mg/kg, first 2 minutes of dosing): at least 70 ng/mL/minute
Average rate of rise in loxapine plasma concentration ([4]; 2 mg/kg, first 10 minutes of dosing): ≥ 20 ng/mL/min
Time to peak plasma concentration after end of drug inhalation ([4]; aerosol inhalation, first day of repeat dose): ≤ 2 min
Reduction in acetic acid writhing, percentage of control vehicle pretreatment (Male mice; 0.125 mg/kg i.p. 30 minutes before acetic acid): −57% **
Reduction in acetic acid writhing, percentage of control vehicle pretreatment (Male mice; 0.25 mg/kg i.p. 30 minutes before acetic acid): −90% ***
Reduction in acetic acid writhing, percentage of control vehicle pretreatment (Male mice; [5]): −100% ***
Reduction in acetic acid writhing, percentage of control vehicle pretreatment (Male mice; [6]): −99% ***
Effect on the number of writhes induced by acetic acid (Male mice): dose-dependently decreased the number of writhes
Dose from which a clear / marked effect on writhing was observed (Male mice; i.p.): ≥ 0.25 mg/kg
Dose from which the number of writhes was significantly decreased (Male mice; i.p.): ≥ 0.125 mg/kg
Dose from which sedation was observed (Male mice; i.p., mice): ≥ 0.25 mg/kg
Food consumption (Beagle Dog): roughly normal
Gross pathology findings at necropsy (Beagle Dog): No treatment related findings
Histopathological examination of gross lesions (Beagle Dog): no treatment related findings
Histopathological examination of larynx, trachea, mainstem bronchi, lungs including bronchi (Beagle Dog): No treatment related abnormalities
Signs of bronchoconstriction (wheezing, prolonged expiratory phase, cough) (Beagle Dog): no signs of bronchoconstriction
